Assay results: PubChem BioAssay AID1963426 (Molecular Pharmacology Branch, DTP, NCI, 2024)

Tested on: 186277-243-T-J2-PDC complex spheroid growth, % test/control
Assay: Anticancer human tumor 186277-243-T-J2-PDC patient-derived colon adenocarcinoma cell line growth inhibition [Asc]
Settings: for IC50: curve of first compound; for viability, T/C: stronger effect = lower value
In short: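 Concentration series start at each agent's clinical Cmax, or at 10 microM when none is established, and drop in half-log steps; agents are applied alone or together to complex spheroids built with HUVEC and hMSC.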

[1] = second compound 0.01 µM, first compound 0.0316 µM
[2] = second compound 0.01 µM, first compound 0.1 µM
[3] = second compound 0.01 µM, first compound 0.316 µM
[4] = second compound 0.01 µM, first compound 1 µM
[5] = second compound 0.01 µM, first compound 3.16 µM
[6] = second compound 0.01 µM, first compound 10 µM
[7] = second compound 0.0316 µM, first compound 0.0316 µM
[8] = second compound 0.0316 µM, first compound 0.1 µM
[9] = second compound 0.0316 µM, first compound 0.316 µM
[10] = second compound 0.0316 µM, first compound 1 µM
[11] = second compound 0.0316 µM, first compound 3.16 µM
[12] = second compound 0.0316 µM, first compound 10 µM
[13] = second compound 0.1 µM, first compound 0.0316 µM
[14] = second compound 0.1 µM, first compound 0.1 µM
[15] = second compound 0.1 µM, first compound 0.316 µM
[16] = second compound 0.1 µM, first compound 1 µM
[17] = second compound 0.1 µM, first compound 3.16 µM
[18] = second compound 0.1 µM, first compound 10 µM
[19] = second compound 0.316 µM, first compound 0.0316 µM
[20] = second compound 0.316 µM, first compound 0.1 µM
[21] = second compound 0.316 µM, first compound 0.316 µM
[22] = second compound 0.316 µM, first compound 1 µM
[23] = second compound 0.316 µM, first compound 3.16 µM
[24] = second compound 0.316 µM, first compound 10 µM
[25] = second compound 1 µM, first compound 0.0316 µM
[26] = second compound 1 µM, first compound 0.1 µM
[27] = second compound 1 µM, first compound 0.316 µM
[28] = second compound 1 µM, first compound 1 µM
[29] = second compound 1 µM, first compound 3.16 µM
[30] = second compound 1 µM, first compound 10 µM
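Also: spheroids exposed to agents for 7 days.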
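For viability, T/C in this document: 100% = DMSO vehicle control wells.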

C#Cc1c(F)ccc2cc(O)cc(-c3ncc4c(N5CC6CCC(C5)N6)nc(OCC56CCCN5CC(F)C6)nc4c3F)c12 (stereo not given) + CNC(C)C(=O)NC1CN(S(=O)(=O)c2cccc(S(=O)(=O)N3CCC4CCC(C(=O)NC(c5ccccc5)c5ccccc5)N4C(=O)C(NC(=O)C(C)NC)C3)c2)CCC2CCC(C(=O)NC(c3ccccc3)c3ccccc3)N2C1=O
IC50 (second compound 0.01 µM): 0.571 µM | IC50 (second compound 0.0316 µM): 0.56 µM | IC50 (second compound 0.1 µM): 0.452 µM | IC50 (second compound 0.316 µM): 0.313 µM | IC50 (second compound 1 µM): 0.23 µM | viability, T/C [1]: 110% | viability, T/C [2]: 110% | viability, T/C [3]: 68.6% | viability, T/C [4]: 31.6% | viability, T/C [5]: 18.1% | viability, T/C [6]: 10.9% | viability, T/C [7]: 119% | viability, T/C [8]: 98.4% | viability, T/C [9]: 72.2% | viability, T/C [10]: 27.7% | viability, T/C [11]: 16.8% | viability, T/C [12]: 9.61% | viability, T/C [13]: 111% | viability, T/C [14]: 99.9% | viability, T/C [15]: 61% | viability, T/C [16]: 24.6% | viability, T/C [17]: 13.2% | viability, T/C [18]: 8.58% | viability, T/C [19]: 128% | viability, T/C [20]: 90% | viability, T/C [21]: 53.2% | viability, T/C [22]: 18.4% | viability, T/C [23]: 10.1% | viability, T/C [24]: 8.04% | viability, T/C [25]: 123% | viability, T/C [26]: 91.4% | viability, T/C [27]: 34% | viability, T/C [28]: 11.7% | viability, T/C [29]: 8.66% | viability, T/C [30]: 6.64%

C=C(F)C(=O)N1CCN(c2nc(OCC3CCCN3C)nc3c2CCN(c2cccc4cccc(Cl)c24)C3)CC1CC#N (stereo not given) + CNC(C)C(=O)NC1CN(S(=O)(=O)c2cccc(S(=O)(=O)N3CCC4CCC(C(=O)NC(c5ccccc5)c5ccccc5)N4C(=O)C(NC(=O)C(C)NC)C3)c2)CCC2CCC(C(=O)NC(c3ccccc3)c3ccccc3)N2C1=O
IC50 (second compound 0.01 µM): 8.07 µM | IC50 (second compound 0.0316 µM): 7.28 µM | IC50 (second compound 0.1 µM): 6.66 µM | IC50 (second compound 0.316 µM): 6.86 µM | IC50 (second compound 1 µM): 6.26 µM | viability, T/C [1]: 133% | viability, T/C [2]: 122% | viability, T/C [3]: 117% | viability, T/C [4]: 112% | viability, T/C [5]: 121% | viability, T/C [6]: 33.9% | viability, T/C [7]: 108% | viability, T/C [8]: 109% | viability, T/C [9]: 99.2% | viability, T/C [10]: 102% | viability, T/C [11]: 117% | viability, T/C [12]: 28.2% | viability, T/C [13]: 108% | viability, T/C [14]: 109% | viability, T/C [15]: 120% | viability, T/C [16]: 119% | viability, T/C [17]: 131% | viability, T/C [18]: 13.1% | viability, T/C [19]: 127% | viability, T/C [20]: 120% | viability, T/C [21]: 104% | viability, T/C [22]: 118% | viability, T/C [23]: 132% | viability, T/C [24]: 15.8% | viability, T/C [25]: 113% | viability, T/C [26]: 102% | viability, T/C [27]: 117% | viability, T/C [28]: 108% | viability, T/C [29]: 118% | viability, T/C [30]: 7.88%

C=CC(=O)N1CCN(c2nc(=O)n(-c3c(C)ccnc3C(C)C)c3nc(-c4c(O)cccc4F)c(F)cc23)C(C)C1 (stereo not given) + CNC(C)C(=O)NC1CN(S(=O)(=O)c2cccc(S(=O)(=O)N3CCC4CCC(C(=O)NC(c5ccccc5)c5ccccc5)N4C(=O)C(NC(=O)C(C)NC)C3)c2)CCC2CCC(C(=O)NC(c3ccccc3)c3ccccc3)N2C1=O
IC50 (second compound 0.01 µM): > 10 µM | IC50 (second compound 0.0316 µM): > 10 µM | IC50 (second compound 0.1 µM): > 10 µM | IC50 (second compound 0.316 µM): > 10 µM | IC50 (second compound 1 µM): > 10 µM | viability, T/C [1]: 102% | viability, T/C [2]: 114% | viability, T/C [3]: 117% | viability, T/C [4]: 100% | viability, T/C [5]: 112% | viability, T/C [6]: 104% | viability, T/C [7]: 118% | viability, T/C [8]: 104% | viability, T/C [9]: 122% | viability, T/C [10]: 116% | viability, T/C [11]: 100% | viability, T/C [12]: 108% | viability, T/C [13]: 124% | viability, T/C [14]: 108% | viability, T/C [15]: 124% | viability, T/C [16]: 114% | viability, T/C [17]: 122% | viability, T/C [18]: 113% | viability, T/C [19]: 124% | viability, T/C [20]: 118% | viability, T/C [21]: 120% | viability, T/C [22]: 130% | viability, T/C [23]: 112% | viability, T/C [24]: 110% | viability, T/C [25]: 112% | viability, T/C [26]: 124% | viability, T/C [27]: 109% | viability, T/C [28]: 106% | viability, T/C [29]: 127% | viability, T/C [30]: 118%

CCN1C(C(=O)NC23CCC(C(=O)O)(CC2)CC3)C(c2cccc(Cl)c2F)C2(C(=O)Nc3cc(Cl)ccc32)C12CCCCC2 (stereo not given) + CNC(C)C(=O)NC1CN(S(=O)(=O)c2cccc(S(=O)(=O)N3CCC4CCC(C(=O)NC(c5ccccc5)c5ccccc5)N4C(=O)C(NC(=O)C(C)NC)C3)c2)CCC2CCC(C(=O)NC(c3ccccc3)c3ccccc3)N2C1=O
IC50 (second compound 0.01 µM): > 3 µM | IC50 (second compound 0.0316 µM): 2.69 µM | IC50 (second compound 0.1 µM): 2.82 µM | IC50 (second compound 0.316 µM): 2.69 µM | IC50 (second compound 1 µM): 2.39 µM | viability, T/C (second compound 0.01 µM, first compound 0.00949 µM): 116% | viability, T/C (second compound 0.01 µM, first compound 0.03 µM): 147% | viability, T/C (second compound 0.01 µM, first compound 0.0949 µM): 155% | viability, T/C (second compound 0.01 µM, first compound 0.3 µM): 115% | viability, T/C (second compound 0.01 µM, first compound 0.949 µM): 76.7% | viability, T/C (second compound 0.01 µM, first compound 3 µM): 53.6% | viability, T/C (second compound 0.0316 µM, first compound 0.00949 µM): 112% | viability, T/C (second compound 0.0316 µM, first compound 0.03 µM): 141% | viability, T/C (second compound 0.0316 µM, first compound 0.0949 µM): 152% | viability, T/C (second compound 0.0316 µM, first compound 0.3 µM): 125% | viability, T/C (second compound 0.0316 µM, first compound 0.949 µM): 84.5% | viability, T/C (second compound 0.0316 µM, first compound 3 µM): 46.3% | viability, T/C (second compound 0.1 µM, first compound 0.00949 µM): 131% | viability, T/C (second compound 0.1 µM, first compound 0.03 µM): 143% | viability, T/C (second compound 0.1 µM, first compound 0.0949 µM): 147% | viability, T/C (second compound 0.1 µM, first compound 0.3 µM): 122% | viability, T/C (second compound 0.1 µM, first compound 0.949 µM): 76.5% | viability, T/C (second compound 0.1 µM, first compound 3 µM): 48.2% | viability, T/C (second compound 0.316 µM, first compound 0.00949 µM): 129% | viability, T/C (second compound 0.316 µM, first compound 0.03 µM): 149% | viability, T/C (second compound 0.316 µM, first compound 0.0949 µM): 149% | viability, T/C (second compound 0.316 µM, first compound 0.3 µM): 118% | viability, T/C (second compound 0.316 µM, first compound 0.949 µM): 75% | viability, T/C (second compound 0.316 µM, first compound 3 µM): 46.8% | viability, T/C (second compound 1 µM, first compound 0.00949 µM): 134% | viability, T/C (second compound 1 µM, first compound 0.03 µM): 132% | viability, T/C (second compound 1 µM, first compound 0.0949 µM): 159% | viability, T/C (second compound 1 µM, first compound 0.3 µM): 118% | viability, T/C (second compound 1 µM, first compound 0.949 µM): 74.9% | viability, T/C (second compound 1 µM, first compound 3 µM): 43.5%

COc1c(OCCCN2CCOCC2)ccc2c3n(c(=NC(=O)c4cnc(N)nc4)nc12)CCN3 + CNC(C)C(=O)NC1CN(S(=O)(=O)c2cccc(S(=O)(=O)N3CCC4CCC(C(=O)NC(c5ccccc5)c5ccccc5)N4C(=O)C(NC(=O)C(C)NC)C3)c2)CCC2CCC(C(=O)NC(c3ccccc3)c3ccccc3)N2C1=O
IC50 (second compound 0.01 µM): 0.0723 µM | IC50 (second compound 0.0316 µM): 0.0982 µM | IC50 (second compound 0.1 µM): 0.0821 µM | IC50 (second compound 0.316 µM): 0.0863 µM | IC50 (second compound 1 µM): 0.0848 µM | viability, T/C (second compound 0.01 µM, first compound 0.00316 µM): 98.5% | viability, T/C (second compound 0.01 µM, first compound 0.01 µM): 105% | viability, T/C [1]: 62.4% | viability, T/C [2]: 47.4% | viability, T/C [3]: 25.2% | viability, T/C [4]: 19.6% | viability, T/C (second compound 0.0316 µM, first compound 0.00316 µM): 99.3% | viability, T/C (second compound 0.0316 µM, first compound 0.01 µM): 128% | viability, T/C [7]: 77.7% | viability, T/C [8]: 54.3% | viability, T/C [9]: 24.9% | viability, T/C [10]: 19.1% | viability, T/C (second compound 0.1 µM, first compound 0.00316 µM): 114% | viability, T/C (second compound 0.1 µM, first compound 0.01 µM): 120% | viability, T/C [13]: 68.3% | viability, T/C [14]: 50.9% | viability, T/C [15]: 25.1% | viability, T/C [16]: 18.1% | viability, T/C (second compound 0.316 µM, first compound 0.00316 µM): 108% | viability, T/C (second compound 0.316 µM, first compound 0.01 µM): 113% | viability, T/C [19]: 74.9% | viability, T/C [20]: 48.5% | viability, T/C [21]: 25.6% | viability, T/C [22]: 18.5% | viability, T/C (second compound 1 µM, first compound 0.00316 µM): 108% | viability, T/C (second compound 1 µM, first compound 0.01 µM): 104% | viability, T/C [25]: 75.2% | viability, T/C [26]: 48.2% | viability, T/C [27]: 21.3% | viability, T/C [28]: 17.7%
